According to patent publication US6410558B1, “Fungicides for the control of take-all disease of plants” (Monsanto Technology LLC, priority 1991, dated 2002):

Test system: Gaeumannomyces graminis var. tritici (Ggt)
Assay: In vitro Assay: mycelial growth of Ggt on minimal media agar plates containing test compound
Type: cell-based
Details: Gaeumannomyces graminis, dark, 19-20° C., 4 to 5 days, diameter of mycelial growth; for inhibition at 0.1 ppm: 0.1 ppm in minimal media agar, read-out: In vitro (ppm) 0.1, Percent Inhibition; for inhibition at 1 ppm: 1 ppm in minimal media agar, read-out: In vitro (ppm) 1, Percent Inhibition; for inhibition at 10 ppm: 10 ppm in minimal media agar, read-out: In vitro (ppm) 10, Percent Inhibition
Summary of the method: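 Compounds added from acetone stock into minimal (Czapek Dox) agar; plates inoculated with three 4-mm Ggt plugs, incubated in dark at 19-20° C for 4 to 5 days. Colony diameter measured; Percent Inhibition = [1-((treated mm −4)/(control mm −4))]×100.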

Compound | inhibition at 0.1 ppm [%] | inhibition at 1 ppm [%] | inhibition at 10 ppm [%]
C#CCNC(=O)c1c(I)cccc1[Si](C)(C)C [Example 208, 2-Iodo-N-2-propynyl-6-(trimethylsilyl)benzamide] | < 0 | 83 | 97
C[Si](C)(C)c1cccc(I)c1C(=O)NC1CC1 [Example 209, N-Cyclopropyl-2-iodo-6-(trimethylsilyl)benzamide] | 28 | 90 | 100
CCNC(=O)c1cc([N+](=O)[O-])ccc1[Si](C)(C)C [Example 214, N-Ethyl-5-nitro-2-(trimethylsilyl)benzamide] | 3 | 6 | 77
CCNC(=O)c1c(-c2ccccc2)cccc1[Si](C)(C)C [Example 221, N-Ethyl-2-phenyl-6-(trimethylsilyl)benzamide] | 15 | 46 | 85
CCN(C(=O)c1cc(N(C)C)ccc1[Si](C)(C)C)C(OC)C(C)(C)C (stereo not drawn) [Example 222, 5-(Dimethylamino)-N-ethyl-N-(1-methoxy-2,2-dimethylpropyl)-2-(trimethylsilyl)benzamide] | < 0 | < 0 | 96
CCNC(=O)c1cc(C(F)(F)F)ccc1[Si](C)(C)C [Example 225, N-Ethyl-5-(trifluoromethyl)-2-(trimethylsilyl)benzamide] | 18 | 64 | 95
CCNC(=O)c1cc(N(C)C)ccc1[Si](C)(C)C [Example 226, 5-(Dimethylamino)-N-ethyl-2-(trimethylsilyl)benzamide] | 32 | 91 | 100
CCNC(=O)c1c([Si](C)(C)C)ccc(C#N)c1Cl [Example 229, 2-Chloro-3-cyano-N-ethyl-6-(trimethylsilyl)benzamide] | < 0 | 28 | 88
CCNC(=O)c1c([Si](C)(C)C)ccc(C)c1Cl [Example 230, 2-Chloro-N-ethyl-3-methyl-6-(trimethylsilyl)benzamide] | 88 | 96 | 96
CCNC(=O)c1c([Si](C)(C)C)ccc(SC)c1Cl [Example 231, 2-Chloro-N-ethyl-3-(methylthio)-6-(trimethylsilyl)benzamide] | < 0 | 76 | 96
CCNC(=O)c1c(Cl)ccc(N)c1[Si](C)(C)C [Example 233, 3-Amino-6-chloro-N-ethyl-2-(trimethylsilyl)benzamide] | 28 | 24 | 76
CCNC(=O)c1c(Cl)cc(Cl)cc1[Si](C)(C)C [Example 234, 2,4-Dichloro-N-ethyl-6-(trimethylsilyl)benzamide] | < 0 | 32 | 81
CCNC(=O)c1c(Cl)cc(C(C)(C)C)cc1[Si](C)(C)C [Example 235, 2-Chloro-4-(1,1-dimethylethyl)-N-ethyl-6-(trimethylsilyl)benzamide] | 3 | < 0 | 70
CCNC(=O)c1c(Br)ccc(OC)c1[Si](C)(C)C [Example 236, 6-Bromo-N-ethyl-3-methoxy-2-(trimethylsilyl)benzamide] | < 0 | 68 | 86
CCNC(=O)c1c(Cl)ccc(N(C)C)c1[Si](C)(C)C [Example 237, 6-Chloro-3-(dimethylamino)-N-ethyl-2-(trimethylsilyl)benzamide] | 44 | 93 | 96
CCNC(=O)c1c([Si](C)(C)C)ccc(S(C)(=O)=O)c1Cl [Example 238, 2-Chloro-N-ethyl-3-(methylsulfonyl)-6-(trimethylsilyl)benzamide] | < 0 | < 0 | 72
CCNC(=O)c1c([Si](C)(C)C)ccc(I)c1Cl [Example 239, 2-Chloro-N-ethyl-3-iodo-6-(trimethylsilyl)benzamide] | 22 | 57 | 87
CCNC(=O)c1cc(NC(=O)c2ccccc2)ccc1[Si](C)(C)C [Example 240, 5-(Benzoylamino)-N-ethyl-2-(trimethylsilyl)benzamide] | 26 | 22 | 65
CCNC(=O)c1c([Si](C)(C)C)ccc(/C=C/[N+](=O)[O-])c1Cl [Example 241, 2-Chloro-N-ethyl-3-(2-(E)-nitro-ethenyl)-6-(trimethylsilyl)benzamide] | 13 | 87 | 100

Compound | inhibition at 0.1 ppm [%] | inhibition at 1 ppm [%] | inhibition at 10 ppm [%]
CCNC(=O)c1c([Si](C)(C)C)ccc(-c2ccccc2)c1Cl [Example 242, 2-Chloro-N-ethyl-3-phenyl-6-(trimethylsilyl)benzamide] | 27 | < 0 | 67
CCNC(=O)c1c([Si](C)(C)C)ccc(C(C)=O)c1Cl [Example 243, 3-Acetyl-2-chloro-N-ethyl-6-(trimethylsilyl)benzamide] | 23 | 10 | 83
CCNC(=O)c1c([Si](C)(C)C)ccc(C(=O)OC)c1Cl [Example 244, 2-Chloro-3-[(ethylamino)carbonyl]-4-(trimethylsilyl)benzoic acid, methyl ester] | 10 | 20 | 53
CCNC(=O)c1cc(N=C=S)ccc1[Si](C)(C)C [Example 245, N-Ethyl-5-isothiocyanato-2-(trimethylsilyl)benzamide] | 50 | 100 | 100
CCNC(=O)c1cccc([N+](=O)[O-])c1[Si](C)(C)C [Example 246, N-Ethyl-3-nitro-2-(trimethylsilyl)benzamide] | < 0 | 2 | 61
CCNC(=O)c1ccccc1OC(C)(C)C [Example 247, N-Ethyl-2-(1,1-dimethylethoxy)benzamide] | < 0 | 16 | 59
CCNC(=O)c1sccc1[Si](C)(C)C [Example 248, N-Ethyl-3-(trimethylsilyl)-2-thiophenecarboxamide] | 10 | 10 | 100
CCN(CC)C(=O)c1c([Si](C)(C)C)coc1[Si](C)(C)C [Example 250, N,N-Diethyl-2,4-bis(trimethylsilyl)-3-furancarboxamide] | < 0 | < 0 | 41
CCNC(=O)c1oc([Si](C)(C)C)cc1[Si](C)(C)C [Example 251, N-Ethyl-3,5-bis(trimethylsilyl)-2-furancarboxamide] | 3 | 36 | 97
CCNC(=O)c1occc1[Si](C)(C)C [Example 252, N-Ethyl-3-(trimethylsilyl)-2-furancarboxamide] | 5 | 28 | 100
CCNC(=O)c1cccn1C[Si](C)(C)C [Example 253, N-Ethyl-1-[(trimethylsilyl)methyl]-1H-pyrrole-2-carboxamide] | < 0 | 14 | 62
CCN(CC)C(=O)c1sccc1[Si](C)(C)C [Example 255, N,N-Diethyl-3-(trimethylsilyl)-2-thiophenecarboxamide] | < 0 | < 0 | 73
CCNC(=O)c1sc(C)cc1[Si](C)(C)C [Example 256, N-Ethyl-5-methyl-3-(trimethylsilyl)-2-thiophenecarboxamide] | < 0 | < 0 | 100
CCNC(=O)c1sc(I)cc1[Si](C)(C)C [Example 257, N-Ethyl-5-iodo-3-(trimethylsilyl)-2-thiophenecarboxamide] | 3 | 23 | 100
CCNC(=O)c1sc(C=O)cc1[Si](C)(C)C [Example 258, N-Ethyl-5-formyl-3-(trimethylsilyl)-2-thiophenecarboxamide] | 19 | 19 | 42
CCNC(=O)c1sncc1[Si](C)(C)C [Example 259, N-Ethyl-4-(trimethylsilyl)-5-isothiazolecarboxamide] | 19 | 11 | 80
CCNC(=O)c1sc([S+](C)[O-])cc1[Si](C)(C)C (stereo not drawn) [Example 260, N-Ethyl-5-(methylsulfinyl)-3-(trimethylsilyl)-2-thiophenecarboxamide] | < 0 | < 0 | 77
CCNC(=O)c1sc(SC)cc1[Si](C)(C)C [Example 261, N-Ethyl-5-(methylthio)-3-(trimethylsilyl)-2-thiophenecarboxamide] | 14 | 25 | 78
C=CCNC(=O)c1sc(Cl)cc1[Si](C)(C)C [Example 262, 5-Chloro-N-(2-propenyl)-3-(trimethylsilyl)-2-thiophenecarboxamide] | 13 | 70 | 100
